The values that follow come from patent publication US11332499B2, “Cyclic peptides and methods of use thereof” (Regents of the University of Minnesota, priority 2018, dated 2022).

“Also recorded” adds a separate entry of the source. Bridge positions count the residues as written; N and C are the ends. Square brackets hold non-standard residues; d marks the D form. Dap = NC[C@H](N)C(=O)O

In one experiment the target is T1, mMC1R (Mus musculus, UniProt Q01727).
T1 construct: expressed in transfected cells
T1 sequence (Q01727 whole entry): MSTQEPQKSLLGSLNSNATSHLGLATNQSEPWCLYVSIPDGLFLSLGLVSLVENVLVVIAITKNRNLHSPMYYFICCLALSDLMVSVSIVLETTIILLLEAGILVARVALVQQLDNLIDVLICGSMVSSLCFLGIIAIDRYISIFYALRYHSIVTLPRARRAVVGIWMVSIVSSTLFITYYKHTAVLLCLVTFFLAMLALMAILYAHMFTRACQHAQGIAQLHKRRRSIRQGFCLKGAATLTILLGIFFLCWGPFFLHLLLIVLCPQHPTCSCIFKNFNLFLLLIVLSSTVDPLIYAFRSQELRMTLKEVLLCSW
The experiment can be described thus: AlphaScreen cAMP assay, agonist activity, HEK293 cells stably expressing mMC1R. It counts as cell-based. As to conditions: Table 2; at 100 μM, relative to NDP-MSH.

The target in another experiment is T2, mMC3R (Mus musculus, UniProt P33033).
T2 construct: expressed in transfected cells
T2 sequence (P33033 whole entry): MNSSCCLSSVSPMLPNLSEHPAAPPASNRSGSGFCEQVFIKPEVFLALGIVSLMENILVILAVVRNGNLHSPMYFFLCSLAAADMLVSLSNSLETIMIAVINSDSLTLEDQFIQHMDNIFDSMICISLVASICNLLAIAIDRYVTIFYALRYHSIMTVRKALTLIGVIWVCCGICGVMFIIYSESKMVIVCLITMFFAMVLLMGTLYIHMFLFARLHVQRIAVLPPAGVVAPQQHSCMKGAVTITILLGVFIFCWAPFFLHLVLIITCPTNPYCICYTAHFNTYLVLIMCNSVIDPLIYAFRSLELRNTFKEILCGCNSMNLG
The experiment can be described thus: AlphaScreen cAMP assay, agonist activity, HEK293 cells stably expressing mMC3R. It counts as cell-based. As to conditions: Table 2; at 100 μM. Background: Alpha assays give light when donor and acceptor beads are brought close together.

Experiment [1] addresses T3, mMC4R (Mus musculus, UniProt P56450). The experiment can be described thus: AlphaScreen cAMP assay, agonist activity, HEK293 cells stably expressing mMC4R. Type of experiment: cell-based. Also on record: expressed in transfected cells. Conditions: Table 2; at 100 μM.
Another experiment deals with rats. As to conditions: ICV administration into rats; cited from earlier work.
The target of another experiment is MC1R (Mus musculus, UniProt Q01727). As to conditions: previously reported; read-out: MC1R agonist potency; cited from earlier work.
Chain of MC1R (Q01727 whole entry): as the sequence (Q01727 whole entry) above
Experiment [2] concerns the target T4, MC4R (Homo sapiens, UniProt P32245). The experiment can be described thus: Competitive radioligand binding, displacement of 125I-AGRP, HEK293 cells expressing hMC4R. Also on record: expressed in transfected cells. As to conditions: for fold decreased binding affinity compared to AGRP: displacement of 125I-AGRP; for IC50: Table 10.
Description: Competitive binding affinity experiments were performed on HEK-293 cells stably expressing the wildtype hMC4R. […] The assay media was carefully aspirated and cells were washed once with assay buffer. Cell were lysed with 500 μL 0.1 M NaOH and 500 μL 1% Triton X-100 for a minimum of 10 min. […] All experiments were performed with duplicate data points and in at least two independent experimental replicates. […] Concentration-response curves and IC50 values were generated and analyzed by the PRISM program (version 4.0. GraphPad Inc.) by a nonlinear regression method. The standard error of the mean (SEM) was derived from the IC50 values from at least two independent experimental replicates.
A further experiment deals with free-feeding mice. The experiment can be described thus: Mouse feeding study, intracerebroventricular (ICV) administration. It counts as in vivo.
Experiment [3] deals with T4, MC4R. The experiment is described as follows: Competitive radioligand binding, displacement of 125I-NDP-MSH, HEK293 cells expressing hMC4R. Conditions: for fold decreased binding affinity compared to NDP-MSH: displacement of 125I-NDP-MSH; for IC50: Table 10. Also on record: expressed in transfected cells. In general terms: Loss of bound radioactivity is the signal in a displacement assay; it reports binding, not function.

The next experiment addresses T5, hMC4R-Kir7.1(M125R) (Homo sapiens, UniProt P32245).
T5 construct: expressed in transfected cells; Kir7.1 tetracycline-induced)
The experiment can be described thus: Kir7.1 thallium flux assay, HEK293 cells expressing human MC4R and Kir7.1 (M125R). Type of experiment: cell-based. Conditions: for fold selective for Kir7.1 signaling over cAMP antagonism / fold selective for cAMP over Kir7.1 signaling: antagonist Ki / Kir7.1 apparent potency. How it is done:
In this assay, the Kir7.1 (M125R) variant was used since it previously was reported to result in higher unitary conductance compared to the native channel.^39
The compound with the highest apparent potency.
HEK293 cells stably expressing the human MC4R and Kir7.1 (M125R) were grown in MEM medium with 10% FBS without antibiotics, suspended in medium plus 1 μg ml^−1 tetracycline (to induce expression of the transfected tet-sensitive Kir7.1 gene) and plated (20 μL) in 384-well poly-D-lysine coated optical bottom plates (BD Biosciences) at 20,000 cells per well. Plates were incubated overnight for 16-24 h in the cell incubator at 37° C., 5% CO2. […] Plates were incubated in the dark for 1 h at room temperature and dye solution was removed. Upon addition of 20 μL 1×HBSS buffer, a liquid handler added 20 μL of ligand solution to entire plate simultaneously (ligands were prepared by serial dilution in 1×HBSS, 20 mM HEPES, 0.1% BSA, pH 7.3). Plates were incubated in the dark for 20 min (unless otherwise indicated). After a baseline reading on a Thallos Plate-reader (Vanderbilt, Tenn.), 10 μL of a thallium solution (1×HBSS, 20 mM HEPES, 2 mM Tl, pH 7.3) was loaded and fluorescence generated by thallium influx was recorded for 10 min. The signal was normalized to an untreated control.

In experiment [4] the target is T3, mMC4R. Also on record: expressed in transfected cells. As to conditions: previous SAR study (ref 52); cited from earlier work.
The target in experiment [5] is T4, MC4R. The experiment can be described thus: AlphaScreen cAMP assay, inverse agonist activity at hMC4R. It counts as cell-based. Also on record: expressed in transfected cells. As to conditions: for hMC4R Inverse Agonist, decrease from basal signal / EC50: Table 10; for fold decreased inverse agonist apparent potency relative to AGRP: wildtype hMC4R; for EC50: apparent potency, none = no inverse agonist activity.
Description: The apparent potencies were determined from the inflection point of the normalized sigmoidal dose-response curves.
(§1) Briefly, cells 70-90% confluent were dislodged with Versene (Gibco®) at 37° C. and plated 10,000 cells/well in a 384-well plate (Optiplate™) with 10 μL freshly prepared stimulation buffer (1×HBSS, 5 mM HEPES, 0.5 mM IBMX, 0.1% BSA, pH=7.4) with 0.5 μg anti-cAMP acceptor beads per well.
(§2) Following stimulation, streptavidin donor beads (0.5 μg) and biotinylated-cAMP (0.62 μmol) were added to the wells in a subdued light environment with 10 μL lysis buffer (5 mM HEPES, 0.3% Tween-20, 0.1% BSA, pH=7.4) and the plates were incubated in the dark at room temperature for an additional 2 hr.
(§3) The EC50 values represent the mean of duplicate replicates performed in at least three independent experiments. The EC50 estimates and associated standard errors (SEM) were determined by fitting the data to a nonlinear least-squares analysis using the PRISM program (v4.0, GraphPad Inc.). The ligands were assayed as TFA salts and not corrected for peptide context.

Experiment [6] concerns the target T4, MC4R. The experiment is described as follows: AlphaScreen cAMP assay, antagonist activity (Schild, NDP-MSH) at hMC4R. It counts as cell-based. Also on record: expressed in transfected cells. As to conditions: Example 5.
Description: as §1, §2, §3
A further experiment concerns the target T6, mMC5R (Mus musculus, UniProt P41149).
T6 construct: expressed in transfected cells
The experiment can be described thus: AlphaScreen cAMP assay, agonist and inverse agonist activity, HEK293 cells stably expressing mMC5R. It counts as cell-based. As to conditions: Table 6; apparent potency at inflection point.

The test system of the next experiment is male WT mice. The experiment can be described thus: Mouse feeding study, intrathecal (IT) injection. It counts as in vivo. As to conditions: 2 nmol IT. How it is done:
This study was conducted in accordance with the guidelines set up by the Institutional Animal Care and Use Committee (IACUC) at the University of Minnesota. Male Wildtype (WT) mice (mixed 129/Sv×C57BL/6J background) derived from an in house breeding colony were used throughout this experiment as previously reported in literature.^14,23,61,63,65 Each mouse was individually housed in standard polycarbonate conventional cages provided by the University of Minnesota's Research Animal Resources (RAR). Mice were singly housed in order to adequately measure food intake of individual mice during experiments. At the beginning of this experiment, mice were age-matched at 24 weeks old. Research lab staff performed weekly cage changes. […] Mice were monitored daily to assess health.
All mouse feeding experiments were designed following a crossover, non-fasting (nocturnal) paradigm. […] Intrathecal injections were performed as previously described.^63,66-68 Mouse body weight and food weight was recorded in 2, 4, 6, 8, 24, 48 and 72 hours post-injection following a single IT injection. […]
Primary dependent variables were: (i) food intake; and (ii) body weight. Food intake and body weight was analyzed a two-factor within-subject Analysis of Variance (ANOVA) with between session variables of compound and the within-subject variable of time. […]

T4 sequence (P32245 whole entry): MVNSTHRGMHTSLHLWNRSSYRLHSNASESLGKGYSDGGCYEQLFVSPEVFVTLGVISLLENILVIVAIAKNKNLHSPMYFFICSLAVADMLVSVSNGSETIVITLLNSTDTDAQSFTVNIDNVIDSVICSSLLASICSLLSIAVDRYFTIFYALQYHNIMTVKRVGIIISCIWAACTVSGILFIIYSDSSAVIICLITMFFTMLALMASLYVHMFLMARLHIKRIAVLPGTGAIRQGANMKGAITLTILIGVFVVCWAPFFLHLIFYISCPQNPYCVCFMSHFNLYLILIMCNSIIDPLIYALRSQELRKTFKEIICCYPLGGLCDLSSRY
T5 sequence (P32245 whole entry, stated change not applied): as the sequence (P32245 whole entry) above
T6 sequence (P41149 whole entry): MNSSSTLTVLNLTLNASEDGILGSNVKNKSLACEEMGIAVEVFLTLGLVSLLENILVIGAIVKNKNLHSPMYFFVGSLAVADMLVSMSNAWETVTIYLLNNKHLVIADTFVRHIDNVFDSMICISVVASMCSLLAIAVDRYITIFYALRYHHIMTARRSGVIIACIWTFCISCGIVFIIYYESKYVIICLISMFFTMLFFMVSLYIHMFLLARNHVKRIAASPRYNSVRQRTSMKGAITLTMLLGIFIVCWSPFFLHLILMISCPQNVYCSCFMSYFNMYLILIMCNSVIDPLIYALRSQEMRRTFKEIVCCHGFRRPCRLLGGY
T3 sequence (P56450 whole entry): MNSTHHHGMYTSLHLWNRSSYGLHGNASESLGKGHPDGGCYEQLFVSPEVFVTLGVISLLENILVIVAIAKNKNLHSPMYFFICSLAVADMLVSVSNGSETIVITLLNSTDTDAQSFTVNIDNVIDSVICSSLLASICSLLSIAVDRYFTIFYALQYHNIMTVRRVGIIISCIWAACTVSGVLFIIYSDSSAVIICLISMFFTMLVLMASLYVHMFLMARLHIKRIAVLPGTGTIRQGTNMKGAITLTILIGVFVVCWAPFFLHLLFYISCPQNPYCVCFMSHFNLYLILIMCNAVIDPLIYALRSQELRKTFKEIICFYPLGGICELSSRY
Description for free-feeding mice: Cannulation surgeries were performed to place a cannula into the lateral cerebral ventricle as previously reported.^23,67,76 Mice were anesthetized with a mixture of xylazine (5 mg/kg) and ketamine (100 mg/kg) administered intraperitoneal (IP) and placed in a stereotaxic apparatus (David Kopf Instruments) that was used to guide the cannula placement. […] After surgery, flunixin meglumine (FluMegluine, Clipper Distribution Company) and 0.5 mL of 0.9% saline (Hospira, Lake Forrest, Ill.) was administered subcutaneously to aid in recovery. Mice recovered for at least 7 days prior to cannula placement validation. Mice were housed individually after surgery and for the remainder of the experiments.
Cannula placement was validated by the feeding response after ICV administration of 2.5 μg of human (h)PYY3-36 (cat # H8585; Bachem), as described previously.^23,67,75-76 Mice received saline treatment and hPYY treatment on different days separated by a washout period of at least 3 days in a crossover design nocturnal feeding paradigm. In this paradigm, compound or saline is administered 2 h prior to lights out (t=0 h) and body weight and food are measured. Mice have free access to food and water. At 4 h post-administration, food is measured. A mouse with a validated properly placed cannula consumed at least 0.8 g more food after hPYY administration compared to saline administration at 4 h.
All ICV and IT administration experiments utilized a crossover design with free access to standard chow. Mice were housed in RAR supplied conventional mouse cages. […] Matching vehicle controls (3% v/v DMSO in saline and 20% solutol) were prepared in parallel. The day of compound administration, an aliquot of stock solution was diluted with saline to the desired experimental dose in 3 μL, in parallel with vehicle control. For ICV administration, the desired experimental dose (3 μL) or vehicle control (3 μL) was delivered 2 h before lights out (t=0 h). For IT administration, the desired experimental dose (5 μL) or vehicle control (5 μL) was delivered 2 h before lights out (t=0 h). Food intake and mouse weight was manually measured at t=0, 2, 4, 6, 8, 24, 48, and 72 h post-injection. Mice recovered 6-7 days between treatments to reestablish pretreatment body weight and feeding patterns.

As to “15 (cyclo(PRFFWAF[dP]); SMILES C[C@@H]1NC(=O)[C@H](Cc2c[nH]c3ccccc23)NC(=O)[C@H](Cc2ccccc2)NC(=O)[C@H](Cc2ccccc2)NC(=O)[C@H](CCCNC(=N)N)NC(=O)[C@@H]2CCCN2C(=O)[C@H]2CCCN2C(=O)[C@H](Cc2ccccc2)NC1=O) [Peptide 15]”, in the experiment with mMC1R, the “mMC1R percent maximal stimulatory response” value worked out at 80% @ 100 μM. In the experiment with mMC3R, the “mMC3R percent maximal stimulatory response” value is 40% @. The “mMC4R percent maximal stimulatory response” value in the experiment with mMC4R [1] is reported as 50% @.
Turning to “AGRP(83-132): hypothesized biologically active form of agouti-related protein (SSRRCVRLHESCLGQQVPCCDPCATCYCRFFNAFCYCRKLGTAMNPCSRT; UniProt O00253 83-132, looked up, fragment)”, in the experiment with rats, the “increase of 24 h food intake above saline” value is 77%.
For “H-Tyr-c[Dap-Arg-Phe-Phe-Asn-Ala-Phe-Asp]-Tyr-NH2 (H-Y[Dap]RFFNAFDY-NH2; lactam 2-9)”, in the experiment with MC1R, the EC50 is 28100 nM.
For “c[Pro-Arg-Phe-Phe-Abu-Ala-Phe-DPro] [Peptide 4 (Example 1)]”, the “fold decreased binding affinity compared to AGRP” value at MC4R [2] was 16 fold. Also, the “food intake after ICV administration” value with free-feeding mice (5 nmol dose) was “observed to decrease food intake, a trend that did not achieve statistical significance”. In addition, the “food intake after ICV administration” value in the experiment on free-feeding mice (2 and 5 nmol doses) is listed as “no significant food increase was observed by 8 h”. The “fold decreased binding affinity compared to NDP-MSH” value at MC4R [3] is on record as 20 fold. Further, on hMC4R-Kir7.1(M125R), the “fold decreased thallium flux apparent potency compared to MDE3-119-10c” value turned out to be 5 fold and the “fold selective for Kir7.1 signaling over cAMP antagonism” value is “approximately 50 fold”. The “fold decreased antagonist potency compared to the Dap substitution at the mMC4R” value on mMC4R [4] is given as 25 fold. On MC4R [5], the “hMC4R Inverse Agonist, decrease from basal signal” value (from here on “hMC4R Inverse Agonist, decrease”) was “(-15%)” and the “fold decreased inverse agonist apparent potency relative to AGRP” value was 9 fold. In addition, the “fold decreased antagonist potency relative to MDE3-119-8c at the hMC4R” value at MC4R [6] is 19 fold.
Consider “c[Pro-Arg-Phe-Phe-Ala-Ala-Phe-DPro] [Peptide 3 (Example 1)]”, for which the “hMC4R Inverse Agonist, decrease” value at MC4R [5] is given as “(-35%)”.
Regarding “c[Pro-Arg-Phe-Phe-Asn-Ala-Cha-DPro] [Compound 10 (Example 3)]”, the EC50 at mMC5R came to 780 nM.
Consider “c[Pro-Arg-Phe-Phe-Asn-Ala-Nle-DPro] [Compound 7 (Example 3)]”, for which the “mouse body weight vs vehicle control” value in the experiment with male WT mice is given as “treated animals weighing more than control animals”. Further, the “cumulative food intake vs vehicle” value with male WT mice (single injection, listed as KAF2039-7) is “statistically significant increase in food intake at 2 and 6 hours post-injection; also recorded: prolonged trend of increased food intake up to 72 hours post-injection”.
As for “c[Pro-Arg-Phe-Phe-Asn-Ala-Phe-DPro] [Peptide 1 (Example 1)]”, on MC4R [5], the “hMC4R Inverse Agonist, decrease” value is reported as “(-30%)”.
In the case of “c[Pro-Arg-Phe-Phe-Asn-Ala-Trp-DPro] [Compound 8 (Example 3)]”, on mMC5R, the EC50 was 150 nM.
With “c[Pro-Arg-Phe-Phe-Asn-Ala-hPhe-DPro] [Compound 11 (Example 3)]”, the EC50 on mMC5R came to 290 nM.
In the case of “c[Pro-Arg-Phe-Phe-Asp-Ala-Phe-DPro] [Peptide 7 (Example 1)]”, at MC4R [2], the IC50 turned out to be 1300 nM and the “fold decreased binding affinity compared to AGRP” value is 100 fold. In addition, at MC4R [3], the IC50 stood at 3600 nM and the “fold decreased binding affinity compared to NDP-MSH” value amounted to 130 fold. For the same substance, on hMC4R-Kir7.1(M125R), the “fold decreased thallium flux apparent potency compared to MDE3-119-10c” value was 2 fold and the “fold selective for Kir7.1 signaling over cAMP antagonism” value is reported as “over 500 fold”. On MC4R [5], the “hMC4R Inverse Agonist, decrease” value is “(-35%)”; the EC50 turned out to be 2000 nM; the “fold decreased inverse agonist apparent potency relative to AGRP” value was 830 fold. Moreover, at MC4R [6], the “fold decreased antagonist potency relative to MDE3-119-8c at the hMC4R” value is recorded as 90 fold.
With “c[Pro-Arg-Phe-Phe-DDap-Ala-Phe-DPro] [Peptide 9 (Example 1)]”, at hMC4R-Kir7.1(M125R), the “fold decreased thallium flux apparent potency compared to MDE3-119-10c” value was 80 fold and the “fold selective for cAMP over Kir7.1 signaling” value came to 4 fold. Also, the “hMC4R Inverse Agonist, decrease” value at MC4R [5] was “(-30%)”.
Turning to “c[Pro-Arg-Phe-Phe-Dap-Ala-Phe-DPro] [Peptide 2 (Example 1)]”, the “food intake after ICV administration vs vehicle” value in the experiment on free-feeding mice (3 nmol dose) is “significant increase in food intake at 4, 6, and 8 h”. In the experiment on free-feeding mice (free feeding male mice, doses up to 3 nmol, listed as MDE3-119-8c), the “food intake after ICV administration” value is “dose-dependent increase in food intake was observed for the first 8 h post-injection; also recorded: did not significantly alter cumulative food intake after 24 h”. At hMC4R-Kir7.1(M125R), the “fold decreased thallium flux apparent potency compared to MDE3-119-10c” value is given as 28 fold and the “fold selective for cAMP over Kir7.1 signaling” value came to 2 fold. Besides, the “hMC4R Inverse Agonist, decrease” value at MC4R [5] is listed as “(-50%)”.
Consider “c[Pro-Arg-Phe-Phe-Glu-Ala-Phe-DPro] [Peptide 8 (Example 1)]”, for which, at MC4R [2], the IC50 is 1400 nM and the “fold decreased binding affinity compared to AGRP” value turned out to be 110 fold. For the same substance, on MC4R [3], the IC50 stood at 2500 nM and the “fold decreased binding affinity compared to NDP-MSH” value worked out at 90 fold. Also, at MC4R [5], the “hMC4R Inverse Agonist, decrease” value is reported as “(-35%)”; the EC50 stood at 1100 nM; the “fold decreased inverse agonist apparent potency relative to AGRP” value is reported as 450 fold. Also, the “fold decreased antagonist potency relative to MDE3-119-8c at the hMC4R” value at MC4R [6] is given as 70 fold.
With “c[Pro-Arg-Phe-Phe-His-Ala-Phe-DPro] [Peptide 10 (Example 1)]”, the “fold decreased binding affinity compared to AGRP” value on MC4R [2] amounted to 4 fold. Moreover, the “fold decreased binding affinity compared to NDP-MSH” value at MC4R [3] worked out at 5 fold. Moreover, the “hMC4R Inverse Agonist, decrease” value at MC4R [5] is “(-30%)”.
For “c[Pro-Arg-Phe-Phe-Ser-Ala-Phe-DPro] [Peptide 5 (Example 1)]”, on MC4R [5], the “hMC4R Inverse Agonist, decrease” value is given as “(-25%)” and the EC50 is 16 ± 4 nM.

Broadly, the IC50 is the midpoint of a concentration-inhibition curve.
